ChEMBL document CHEMBL1201862, “PubChem BioAssay data set” (2004)
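1) Cells in 96-well plates. 2) Compound, 48 h, 5 concentrations. 3) Linear interpolation between surrounding doses. 4) Unreached endpoint = highest concentration. Abbreviation: GI50, concentration required for 50% inhibition of growth.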 Active and inactive are the calls of the source. Rule as the data show it: active = GI50 up to about 1.1 µM and inactive = higher.

Key:
Experiment in all cases: growth of human tumour cells (NCI), 48 h
SF-539 = system: SF-539
Hs-578T = system: Hs-578T
DU-145 = system: DU-145
786-0 = system: 786-0
OVCAR-3 = system: OVCAR-3
SK-MEL-28 = system: SK-MEL-28
COLO 205 = system: COLO 205
U-251 = system: U-251
HOP-62 = system: HOP-62
SNB-19 = system: SNB-19
RXF 393 = system: RXF 393
HCT-116 = system: HCT-116
UACC-62 = system: UACC-62
NCI-H522 = system: NCI-H522
SN12C = system: SN12C
SNB-75 = system: SNB-75
SR = system: SR
SW-620 = system: SW-620
A498 = system: A498
TK-10 = system: TK-10

Row | SMILES | GI50 (SF-539) | GI50 (Hs-578T) | GI50 (DU-145) | GI50 (786-0) | GI50 (OVCAR-3) | GI50 (SK-MEL-28) | GI50 (COLO 205) | GI50 (U-251) | GI50 (HOP-62) | GI50 (SNB-19) | GI50 (RXF 393) | GI50 (HCT-116) | GI50 (UACC-62) | GI50 (NCI-H522) | GI50 (SN12C) | GI50 (SNB-75) | GI50 (SR) | GI50 (SW-620) | GI50 (A498) | GI50 (TK-10)
1 | COc1ccc(-c2cc(=O)c3c(OC)c(OC)c(OC)c(OC)c3o2)cc1OC [NOBILETIN] | > 100 µM (inactive) | 21.1 µM (inactive) | 61.1 µM (inactive) | 49.9 µM (inactive) | 24.7 µM (inactive) | > 100 µM (inactive) | 35 µM (inactive) | 71 µM (inactive) | 44.7 µM (inactive) | > 100 µM (inactive) | 61.5 µM (inactive) | 72.4 µM (inactive) | 25.6 µM (inactive) | 28.6 µM (inactive) | 41.5 µM (inactive) | 30.5 µM (inactive) | 59.7 µM (inactive) | 47.5 µM (inactive) | 25.2 µM (inactive) | 50.1 µM (inactive)
2 | Cc1ccc([S+](c2ccccc2)c2cc(C)ccc2C)cc1.O=C(OC(C(=O)[O-])C(OC(=O)c1ccccc1)C(=O)O)c1ccccc1 (stereo not given) | 29 µM (inactive) | 5.12 µM (inactive) | 34.2 µM (inactive) | 26.2 µM (inactive) | 3.14 µM (inactive) | 17.6 µM (inactive) | 4.26 µM (inactive) | 5.37 µM (inactive) | 21.5 µM (inactive) | 4.83 µM (inactive) | 34 µM (inactive) | 3.49 µM (inactive) | 12.2 µM (inactive) | 3.55 µM (inactive) | 17.7 µM (inactive) | 8.09 µM (inactive) | 1.85 µM (inactive) | 7.89 µM (inactive) | 39.2 µM (inactive) | 18.2 µM (inactive)
3 | CC1(C2(C)OC(=O)c3ccccc32)OC(=O)c2ccccc21 (stereo not given) | > 100 µM (inactive) | 72.6 µM (inactive) | > 100 µM (inactive) | > 100 µM (inactive) | > 100 µM (inactive) | > 100 µM (inactive) | > 100 µM (inactive) | > 100 µM (inactive) | > 100 µM (inactive) | > 100 µM (inactive) | > 100 µM (inactive) | > 100 µM (inactive) | > 100 µM (inactive) | 35.9 µM (inactive) | > 100 µM (inactive) | > 100 µM (inactive) | > 100 µM (inactive) | > 100 µM (inactive) | > 100 µM (inactive) | > 100 µM (inactive)
4 | CC(C)(C)C(=O)C(Cc1ccccc1)C(=O)C(C)(C)C | > 100 µM (inactive) | > 100 µM (inactive) | > 100 µM (inactive) | > 100 µM (inactive) | 55 µM (inactive) | > 100 µM (inactive) | > 100 µM (inactive) | > 100 µM (inactive) | > 100 µM (inactive) | > 100 µM (inactive) | 98.6 µM (inactive) | 52.6 µM (inactive) |  | 98.4 µM (inactive) | > 100 µM (inactive) | > 100 µM (inactive) | 51.3 µM (inactive) | > 100 µM (inactive) | > 100 µM (inactive) | > 100 µM (inactive)
5 | Cn1c2ccccc2c2cc(N3CCCC3)c3c(c21)C(=O)N(c1ccccc1)C3=O |  | 72.9 µM (inactive) | > 100 µM (inactive) | 33.8 µM (inactive) | > 100 µM (inactive) | > 100 µM (inactive) | > 100 µM (inactive) | > 100 µM (inactive) | 60.8 µM (inactive) | > 100 µM (inactive) | 32.5 µM (inactive) | > 100 µM (inactive) | 56.8 µM (inactive) | > 100 µM (inactive) | > 100 µM (inactive) | 38.4 µM (inactive) | > 100 µM (inactive) | > 100 µM (inactive) | > 100 µM (inactive) | > 100 µM (inactive)
6 | COc1cc(C2SCC(=O)N2NC(=O)c2ccc(NC(C)=O)cc2OC)ccc1O (stereo not given) | 0.729 µM (active) | > 100 µM (inactive) | 21 µM (inactive) | 31.3 µM (inactive) | > 100 µM (inactive) | > 100 µM (inactive) | > 100 µM (inactive) |  | 4.12 µM (inactive) | 30.3 µM (inactive) | 39.3 µM (inactive) | > 100 µM (inactive) | > 100 µM (inactive) | > 100 µM (inactive) | 36.5 µM (inactive) | 23.7 µM (inactive) | > 100 µM (inactive) | > 100 µM (inactive) | 7.59 µM (inactive) | 
7 | Nc1nc2c(c(=O)[nH]1)N=C(COP(=O)(O)OP(=O)(O)O)CN2 | > 100 µM (inactive) | > 100 µM (inactive) | > 100 µM (inactive) | > 100 µM (inactive) |  | > 100 µM (inactive) | > 100 µM (inactive) | > 100 µM (inactive) | > 100 µM (inactive) | > 100 µM (inactive) | > 100 µM (inactive) | > 100 µM (inactive) | > 100 µM (inactive) | > 100 µM (inactive) | > 100 µM (inactive) | > 100 µM (inactive) | > 100 µM (inactive) | > 100 µM (inactive) | > 100 µM (inactive) | > 100 µM (inactive)
8 | FC(F)(F)c1cc(N(C2c3ccccc3C=Cc3ccccc32)P(Cl)Cl)cc(C(F)(F)F)c1 | 26.7 µM (inactive) | 25.5 µM (inactive) | 19.3 µM (inactive) | 16.8 µM (inactive) | 16.4 µM (inactive) | 25.6 µM (inactive) | 22.2 µM (inactive) | 17.8 µM (inactive) | 17.6 µM (inactive) | 21.8 µM (inactive) | 13.8 µM (inactive) | 16.5 µM (inactive) |  | 14.1 µM (inactive) | 16.9 µM (inactive) | 19.3 µM (inactive) | 16 µM (inactive) | 25.4 µM (inactive) | 26.9 µM (inactive) | 33 µM (inactive)
9 | C=CCc1cc(C=C(C#N)C#N)cc(OC)c1O | > 100 µM (inactive) | > 100 µM (inactive) | > 100 µM (inactive) | > 100 µM (inactive) | 35.2 µM (inactive) | > 100 µM (inactive) | 52.6 µM (inactive) | 76.2 µM (inactive) |  | > 100 µM (inactive) | 24.8 µM (inactive) | > 100 µM (inactive) | 94.2 µM (inactive) | 90.6 µM (inactive) |  | 55.5 µM (inactive) | 42.7 µM (inactive) | 81.7 µM (inactive) | > 100 µM (inactive) | > 100 µM (inactive)
10 | OC(CC(O)(C(F)(F)F)C(F)(F)F)c1ccc(C(O)CC(O)(C(F)(F)F)C(F)(F)F)cc1 (stereo not given) | 15.7 µM (inactive) | 22 µM (inactive) | 15 µM (inactive) | 20.4 µM (inactive) | 6.38 µM (inactive) | 16 µM (inactive) |  | 16.4 µM (inactive) | 17 µM (inactive) | 17.1 µM (inactive) | 15 µM (inactive) | 11.8 µM (inactive) | 12.2 µM (inactive) | 18.3 µM (inactive) |  | 17.5 µM (inactive) | 17.1 µM (inactive) | 19.2 µM (inactive) | 12.6 µM (inactive) | 
11 | OC(C1CO1)C(O)C1CO1 (stereo not given) | 23.9 µM (inactive) | 80.9 µM (inactive) | 9.75 µM (inactive) | 8.69 µM (inactive) | 70.3 µM (inactive) | 92.3 µM (inactive) | 87.7 µM (inactive) | 27 µM (inactive) | 7.26 µM (inactive) | 58.9 µM (inactive) | 56.1 µM (inactive) | 45.8 µM (inactive) | 9.27 µM (inactive) | 46.9 µM (inactive) | 20.7 µM (inactive) | 7.96 µM (inactive) | 1.75 µM (inactive) |  | 74 µM (inactive) | 86.3 µM (inactive)
12 | Cc1ccc(S(=O)(=O)N/N=C2\CCCCCCCCCCC2CN(C)C)cc1 (stereo not given) | 17.1 µM (inactive) | 15 µM (inactive) | 18.5 µM (inactive) | 15.9 µM (inactive) | 17.5 µM (inactive) | 14.8 µM (inactive) | 17.4 µM (inactive) | 15.9 µM (inactive) | 17.6 µM (inactive) | 15.5 µM (inactive) | 11.6 µM (inactive) | 14.7 µM (inactive) | 18.2 µM (inactive) | 14.3 µM (inactive) | 20.6 µM (inactive) |  | 16.9 µM (inactive) | 17.9 µM (inactive) | 17.7 µM (inactive) | 14.4 µM (inactive)
13 | COC(=O)C1=C(O)C(C(=O)OC)[C@]2(O)[C@H](C(=O)OC)[C@H]1C[C@@H](c1ccc(OC)c(OC)c1)[C@H]2C(=O)OC (stereo not given in full) | 4.78 µM (inactive) | 29.9 µM (inactive) | 19.9 µM (inactive) | 39.8 µM (inactive) | 16.5 µM (inactive) | 19.2 µM (inactive) | 17.9 µM (inactive) | 11.2 µM (inactive) | 16.7 µM (inactive) | 14.6 µM (inactive) | 14.3 µM (inactive) | 21 µM (inactive) | 22.9 µM (inactive) |  | 28.2 µM (inactive) | 7.8 µM (inactive) | 14 µM (inactive) | 15.6 µM (inactive) | 18 µM (inactive) | 24.9 µM (inactive)
14 | O=C1c2cc([N+](=O)[O-])sc2C(=O)c2c([N+](=O)[O-])csc21 | 0.349 µM (active) | 0.65 µM (active) | 1.7 µM (inactive) | 0.483 µM (active) | 0.122 µM (active) | 0.713 µM (active) | 0.925 µM (active) | 0.379 µM (active) |  | 1.63 µM (inactive) | 0.706 µM (active) | 0.456 µM (active) | 0.378 µM (active) | 0.6 µM (active) | 0.542 µM (active) | 1.77 µM (inactive) | 0.0479 µM (active) | 0.31 µM (active) | 1.92 µM (inactive) | 1.63 µM (inactive)
